Assay results: patent publication US20160009693A1, “HERBICIDAL COMPOUNDS” (SYNGENTA LIMITED, priority 2013, published 2016)

Tests used:
Type in all cases: in vivo
Settings in all cases: applied at 1000 g/h, evaluated after 13 days
[1] = tested on: Echinochloa crus-galli (ECHCG); test: Herbicidal glasshouse test, pre-emergence, ECHCG
Method: (§1) Seeds of a variety of test species are sown in standard soil in pots (Alopecurus myosuroides (ALOMY), Setaria faberi (SETFA), Echinochloa crus-galli (ECHCG), Solanum nigrum (SOLNI), Amaranthus retoflexus (AMARE), Ipomoea hederacea (IPOHE)). After cultivation for one day (pre-emergence) or after 8 days cultivation (post-emergence) under controlled conditions in a glasshouse (at 24/16° C., day/night; 14 hours light; 65% humidity), the plants are sprayed with an aqueous spray solution derived from the formulation of the technical active ingredient in acetone / water (50:50) solution containing 0.5% Tween 20 (polyoxyethelyene sorbitan monolaurate, CAS RN 9005-64-5). […] The test plants are then grown in a glasshouse under controlled conditions in a glasshouse (at 24/16° C., day/night; 14 hours light; 65% humidity) and watered twice daily. After 13 days for pre and post-emergence, the test is evaluated for the percentage damage caused to the plant. The biological activities are shown in the following table on a five point scale (5=80-100%; 4=60-79%; 3=40-59%; 2=20-39%; 1=0-19%).

[2] = tested on: Echinochloa crus-galli (ECHCG); test: Herbicidal glasshouse test, post-emergence, ECHCG
Method: as §1

[3] = tested on: Solanum nigrum (SOLNI); test: Herbicidal glasshouse test, post-emergence, SOLNI
Method: as §1

[4] = tested on: Solanum nigrum (SOLNI); test: Herbicidal glasshouse test, pre-emergence, SOLNI
Method: as §1

[5] = tested on: Setaria faberi (SETFA); test: Herbicidal glasshouse test, post-emergence, SETFA
Method: as §1

[6] = tested on: Ipomoea hederacea (IPOHE); test: Herbicidal glasshouse test, pre-emergence, IPOHE
Method: as §1

[7] = tested on: Amaranthus retoflexus (AMARE); test: Herbicidal glasshouse test, pre-emergence, AMARE
Method: as §1

[8] = tested on: Ipomoea hederacea (IPOHE); test: Herbicidal glasshouse test, post-emergence, IPOHE
Method: as §1

[9] = tested on: Alopecurus myosuroides (ALOMY); test: Herbicidal glasshouse test, post-emergence, ALOMY
Method: as §1

[10] = tested on: Setaria faberi (SETFA); test: Herbicidal glasshouse test, pre-emergence, SETFA
Method: as §1

[11] = tested on: Amaranthus retoflexus (AMARE); test: Herbicidal glasshouse test, post-emergence, AMARE
Method: as §1

[12] = tested on: Alopecurus myosuroides (ALOMY); test: Herbicidal glasshouse test, pre-emergence, ALOMY
Method: as §1

SMILES	PRE Application ECHCG, percentage damage (five point scale) [1]	POST Application ECHCG, percentage damage (five point scale) [2]	POST Application SOLNI, percentage damage (five point scale) [3]	PRE Application SOLNI, percentage damage (five point scale) [4]	POST Application SETFA, percentage damage (five point scale) [5]	PRE Application IPOHE, percentage damage (five point scale) [6]	PRE Application AMARE, percentage damage (five point scale) [7]	POST Application IPOHE, percentage damage (five point scale) [8]	POST Application ALOMY, percentage damage (five point scale) [9]	PRE Application SETFA, percentage damage (five point scale) [10]	POST Application AMARE, percentage damage (five point scale) [11]	PRE Application ALOMY, percentage damage (five point scale) [12]
Cc1ccc(-n2c(=O)c(C(=O)Nc3nnnn3C)nn(C)c2=O)cc1C [Compound 1.026]	5 (5=80-100%)	5 (5=80-100%)	5 (5=80-100%)	5 (5=80-100%)	5 (5=80-100%)	5 (5=80-100%)	5 (5=80-100%)	5 (5=80-100%)	5 (5=80-100%)	5 (5=80-100%)	5 (5=80-100%)	5 (5=80-100%)
Cn1nnnc1NC(=O)c1nn(C)c(=O)n(-c2ccc(Br)cc2)c1=O [Compound 1.027]	5 (5=80-100%)	5 (5=80-100%)	5 (5=80-100%)	5 (5=80-100%)	5 (5=80-100%)	5 (5=80-100%)	5 (5=80-100%)	5 (5=80-100%)	5 (5=80-100%)	5 (5=80-100%)	5 (5=80-100%)	5 (5=80-100%)
Cn1nnnc1NC(=O)c1nn(C)c(=O)n(-c2cccc(C(F)(F)F)c2)c1=O [Compound 1.028]	5 (5=80-100%)	5 (5=80-100%)	5 (5=80-100%)	5 (5=80-100%)	5 (5=80-100%)	5 (5=80-100%)	5 (5=80-100%)	5 (5=80-100%)	5 (5=80-100%)	5 (5=80-100%)	5 (5=80-100%)	5 (5=80-100%)
Cn1nnnc1NC(=O)c1nn(C)c(=O)n(-c2ccc(OC(F)(F)F)c(F)c2)c1=O [Compound 1.029]	5 (5=80-100%)	5 (5=80-100%)	5 (5=80-100%)	5 (5=80-100%)	5 (5=80-100%)	5 (5=80-100%)	5 (5=80-100%)	5 (5=80-100%)	5 (5=80-100%)	5 (5=80-100%)	5 (5=80-100%)	5 (5=80-100%)
Cn1nnnc1NC(=O)c1nn(C)c(=O)n(-c2ccc([N+](=O)[O-])cc2)c1=O [Compound 1.031]	4 (4=60-79%)	5 (5=80-100%)	5 (5=80-100%)	5 (5=80-100%)	5 (5=80-100%)	4 (4=60-79%)	5 (5=80-100%)	2 (2=20-39%)	4 (4=60-79%)	4 (4=60-79%)	5 (5=80-100%)	3 (3=40-59%)
